Test results from US9340577B2, “HLA binding motifs and peptides and their uses” (priority 1992, dated 2016).
No end group written: not given here.

Experiments:
Assay in all cases: biochemical
[1] = biological target: DRB1*1201 (Homo sapiens, UniProt P01903+P01911, A100R/A169T/D57E/D86V/F55L/H45Y/K41T/L162R/M171V/P40S/Q125H/Q178H/Q39Y/Q99D/R42G/S66L/T262R/V114A/V67L/W38E/Y59H/Y61H/Y89S); format: binding
[2] = biological target: DRB1*0301 (Homo sapiens, UniProt P01903+P01911, A100K/A102G/A103R/A169T/F55Y/I96L/K41T/L162R/M171V/P40S/Q125H/Q178H/Q39Y/R42S/S66N/T106N/T262R/W38E/Y61H); format: binding
[3] = biological target: DRB3*0101 (Homo sapiens, UniProt P01903+P79483); format: binding
[4] = biological target: DRB1*0802 (Homo sapiens, UniProt P01903+P01911, A100R/A103L/A169T/F76Y/H45Y/I96F/K41T/L162R/M171V/P40S/Q125H/Q178H/Q39Y/Q99D/R218S/R42G/S66Y/V115G/W38E); format: binding
[5] = biological target: DR7 (DRB1*0701) (Homo sapiens, UniProt P01903+P01911, A100R/A102G/A103Q/D57E/D86V/E43K/F76Y/K127E/L162R/M171V/P40G/Q125H/Q99D/R33Q/R42Y/R54Q/S133A/S66F/T210M/V115G/Y107V/Y59L/Y89S); format: binding
[6] = biological target: DRB1*1302 (Homo sapiens, UniProt P01903+P01911, A100E/A169T/K41T/L162R/M171V/P40S/Q125H/Q178H/Q39Y/Q99D/R42S/S66N/T262R/V115G/W38E/Y61H); format: binding
[7] = biological target: DRB5*0101 (Homo sapiens, UniProt P01903+Q30154); conditions: Binding affinity DRB5 *0101
[8] = biological target: DRB1*1101 (Homo sapiens, UniProt P01903+P01911, A100R/A169T/A87E/I96F/K41T/L162R/M171V/P40S/Q125H/Q178H/Q39Y/Q99D/R42S/S66Y/T262R/V115G/W38E); conditions: Binding affinity DRB1 *1101
[9] = biological target: DRB1*0901 (Homo sapiens, UniProt P01903+P01911, A100R/A103E/D57H/D86V/F55Y/F60I/F76Y/I96F/K127E/L162R/M171V/P40D/Q125H/Q99R/R33Q/R42F/S133A/S66N/T210M/V115G/W38K/Y107V/Y59G/Y89S); format: binding
[10] = biological target: DRB4*0101 (Homo sapiens, UniProt P01903+P13762, G164S); format: binding
[11] = biological target: DRB1*1501 (Homo sapiens, UniProt P01903+P01911); format: binding
[12] = biological target: DRB1*0405 (Homo sapiens, UniProt P01903+P01911, A100R/A169T/D86S/F76Y/I96L/K127E/L162R/M171V/N62H/P40V/Q125Y/R42H/S133A/S149N/S66Y/V115G/V209L/W38E); format: binding
[13] = biological target: DR1 (DRB1*0101) (Homo sapiens, UniProt P01903+P01911, A100R/D57E/F55L/F60I/F76Y/I96L/L162R/M171V/P40L/Q125E/R42F/V115G/Y59C); format: binding
[14] = biological target: DR4w4 (DRB1*0401) (Homo sapiens, UniProt P01903+P01911, A100K/A169T/F76Y/I96L/K127E/L162R/M171V/N62H/P40V/Q125Y/R42H/S133A/S149N/S66Y/V115G/V209L/W38E); format: binding

DRB1*0301, sequence (P01903 26-254 limits assumed, other chains not shown): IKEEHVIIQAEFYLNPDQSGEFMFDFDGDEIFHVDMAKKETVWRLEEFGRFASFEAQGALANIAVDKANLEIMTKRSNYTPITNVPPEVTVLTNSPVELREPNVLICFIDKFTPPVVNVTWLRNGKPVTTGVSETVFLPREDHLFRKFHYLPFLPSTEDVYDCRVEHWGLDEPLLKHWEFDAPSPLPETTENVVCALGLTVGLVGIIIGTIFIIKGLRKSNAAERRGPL
DRB1*1101, sequence (P01903 26-254 limits assumed, other chains not shown): as above
DRB1*1302, sequence (P01903 26-254 limits assumed, other chains not shown): as above

Molecule	IC50 [1] [µM]	IC50 [2] [µM]	IC50 [3] [µM]	IC50 [4] [µM]	IC50 [5] [µM]	IC50 [6] [µM]	IC50 [7] [µM]	IC50 [8] [µM]	IC50 [9] [µM]	IC50 [10] [µM]	IC50 [11] [µM]	IC50 [12] [µM]	IC50 [13] [µM]	IC50 [14] [µM]
CC[C@H](C)[C@H](NC(=O)[C@H](Cc1c[nH]c2ccccc12)NC(=O)[C@@H](NC(=O)[C@@H](N)C(C)C)[C@@H](C)O)C(=O)NCC(=O)N[C@@H](C)C(=O)N[C@@H](C)C(=O)N1CCC[C@H]1C(=O)N[C@@H](CC(C)C)C(=O)N[C@H](C(=O)N[C@@H](CC(C)C)C(=O)N[C@@H](CO)C(=O)N[C@@H](CCCNC(=N)N)C(=O)N[C@H](C(=O)N[C@H](C(=O)O)C(C)C)[C@@H](C)CC)[C@@H](C)CC [Peptide 68.0060]	0.818	> 20	> 20											
CC[C@H](C)[C@H](NC(=O)[C@@H]1CCCN1C(=O)[C@H](CC(N)=O)NC(=O)[C@@H](N)Cc1c[nH]c2ccccc12)C(=O)N[C@@H](CC(C)C)C(=O)N[C@@H](CC(C)C)C(=O)N[C@@H](Cc1c[nH]c2ccccc12)C(=O)N[C@@H](CCC(N)=O)C(=O)N1CCC[C@H]1C(=O)N[C@H](C(=O)N1CCC[C@H]1C(=O)N[C@H](C(=O)N[C@@H](Cc1c[nH]cn1)C(=O)N[C@H](C(=O)N[C@H](C(=O)O)C(C)C)[C@@H](C)O)C(C)C)[C@@H](C)CC [Peptide 68.0035]	5.69	> 20	> 20	> 20										
CC[C@H](C)[C@H](NC(=O)CNC(=O)[C@H](Cc1ccc(O)cc1)NC(=O)[C@H](CC(C)C)NC(=O)[C@H](CO)NC(=O)[C@H](CC(C)C)NC(=O)[C@H](CC(C)C)NC(=O)[C@H](CO)NC(=O)[C@@H](N)CC(C)C)C(=O)N[C@@H](Cc1c[nH]cn1)C(=O)N[C@@H](CCCCN)C(=O)N[C@@H](CCC(N)=O)C(=O)N[C@@H](CCCCN)C(=O)N[C@@H](CCC(=O)O)C(=O)N[C@@H](CCCCN)C(=O)O [Peptide 68.0045]	0.647	> 20	> 20		> 20	> 20								
CC[C@H](C)[C@H](NC(=O)[C@@H]1CCCN1)C(=O)N[C@@H](CC(C)C)C(=O)N[C@@H](CC(C)C)C(=O)N[C@@H](Cc1c[nH]c2ccccc12)C(=O)N[C@@H](CCC(N)=O)C(=O)N1CCC[C@H]1C(=O)N[C@H](C(=O)N1CCC[C@H]1C(=O)N[C@H](C(=O)N[C@@H](Cc1c[nH]cn1)C(=O)N[C@H](C(=O)N[C@H](C(=O)N1CCC[C@H]1C(=O)N[C@@H](CC(C)C)C(=O)O)C(C)C)[C@@H](C)O)C(C)C)[C@@H](C)CC [Peptide 68.0037]	2.37	> 20	> 20	> 20			> 20							
CC[C@H](C)[C@H](NC(=O)[C@@H](NC(=O)[C@@H]1CCCN1C(=O)CN)C(C)C)C(=O)N1CCC[C@H]1C(=O)N[C@@H](CCC(N)=O)C(=O)N[C@@H](CC(=O)O)C(=O)N[C@@H](Cc1c[nH]c2ccccc12)C(=O)N[C@@H](CO)C(=O)N[C@H](C(=O)N[C@@H](CCC(=O)O)C(=O)N[C@@H](CS)C(=O)N[C@@H](CCSC)C(=O)N[C@H](C(=O)N[C@H](C(=O)O)[C@@H](C)O)[C@@H](C)O)[C@@H](C)O [Peptide 68.0156]	> 20	> 20	> 20											
CC(C)C[C@H](NC(=O)[C@@H](NC(=O)[C@H](CCC(N)=O)NC(=O)[C@H](Cc1c[nH]c2ccccc12)NC(=O)[C@@H]1CCCN1C(=O)[C@H](CCC(N)=O)NC(=O)[C@@H](N)CO)C(C)C)C(=O)N[C@H](C(=O)N[C@@H](C)C(=O)N[C@@H](CO)C(=O)N[C@@H](CCCNC(=N)N)C(=O)NCC(=O)N[C@@H](CCCNC(=N)N)C(=O)N[C@@H](C)C(=O)N[C@H](C(=O)O)C(C)C)C(C)C [Peptide 68.0061]	8.78	> 20	> 20											
NGVLQGITSWGPEPC [Peptide 68.0017]	> 20	8.43	> 20	> 20		> 20	> 20	> 20	> 20					
CSCC[C@H](NC(=O)[C@H](CC(=O)O)NC(=O)[C@H](Cc1ccc(O)cc1)NC(=O)[C@H](CC(C)C)NC(=O)[C@@H]1CCCN1C(=O)[C@H](Cc1c[nH]cn1)NC(=O)[C@@H]1CCCN1C(=O)[C@H](Cc1ccccc1)NC(=O)[C@H](CO)NC(=O)[C@H](Cc1c[nH]cn1)NC(=O)[C@H](CO)NC(=O)[C@@H](NC(=O)[C@H](CCC(N)=O)NC(=O)[C@H](Cc1ccccc1)NC(=O)[C@@H](N)C(C)C)C(C)C)C(=O)O [Peptide 68.0070]	2.48	> 20	> 20							> 20				
CC[C@H](C)[C@H](NC(=O)[C@H](CC(=O)O)NC(=O)[C@H](Cc1c[nH]cn1)NC(=O)[C@@H](NC(=O)[C@@H](NC(=O)[C@@H](NC(=O)[C@H](CCC(N)=O)NC(=O)[C@H](CC(C)C)NC(=O)[C@H](CCC(=O)O)NC(=O)[C@@H](NC(=O)[C@H](CS)NC(=O)[C@@H](N)CC(C)C)[C@@H](C)O)[C@@H](C)O)[C@@H](C)O)[C@@H](C)CC)C(=O)N[C@H](C(=O)N[C@@H](CC(C)C)C(=O)N[C@@H](CCC(=O)O)C(=O)O)[C@@H](C)CC [Peptide 1543.24]	> 20	0.08	> 20	> 20			> 20	> 20	> 20		> 20			
EVFFQRLGIASGRAR [Peptide 68.0115]	2.94	> 20	> 20											
CC(C)C[C@H](NC(=O)[C@H](Cc1ccccc1)NC(=O)CNC(=O)[C@H](CC(C)C)NC(=O)[C@H](CO)NC(=O)[C@H](CC(C)C)NC(=O)[C@H](CO)NC(=O)[C@H](C)NC(=O)[C@H](C)NC(=O)[C@H](CCCNC(=N)N)NC(=O)[C@H](C)NC(=O)[C@H](CC(C)C)NC(=O)[C@H](CC(C)C)NC(=O)[C@H](CC(C)C)NC(=O)[C@@H]1CCCN1)C(=O)O [Peptide 68.0021]	1.51	> 20	> 20											
CC[C@H](C)[C@H](NC(=O)[C@@H]1CCCN1C(=O)[C@@H](N)CC(N)=O)C(=O)N[C@@H](CC(C)C)C(=O)N[C@@H](CC(C)C)C(=O)N[C@@H](Cc1c[nH]c2ccccc12)C(=O)N[C@@H](CCC(N)=O)C(=O)N1CCC[C@H]1C(=O)N[C@H](C(=O)N1CCC[C@H]1C(=O)N[C@H](C(=O)N[C@@H](Cc1c[nH]cn1)C(=O)N[C@H](C(=O)N[C@H](C(=O)N1CCC[C@H]1C(=O)O)C(C)C)[C@@H](C)O)C(C)C)[C@@H](C)CC [Peptide 68.0036]	0.612	> 20	> 20				> 20							
CC(C)C[C@H](NC(=O)[C@@H](NC(=O)CN)C(C)C)C(=O)N[C@H](C(=O)N[C@@H](Cc1c[nH]cn1)C(=O)N1CCC[C@H]1C(=O)N[C@@H](CCC(N)=O)C(=O)N[C@@H](Cc1c[nH]c2ccccc12)C(=O)N[C@H](C(=O)N[C@@H](CC(C)C)C(=O)N[C@H](C(=O)N[C@@H](C)C(=O)N[C@@H](C)C(=O)N[C@@H](Cc1c[nH]cn1)C(=O)N[C@@H](CS)C(=O)O)[C@@H](C)O)C(C)C)C(C)C [Peptide 68.0063]	7.49	> 20	> 20											
DSVDSVNCGVISAAA [Peptide 1601.24]		> 20	> 20	> 20	2.14	0.736	> 20	> 20	6.73	8.71	> 20	13.6	0.916	1.28
